Literature values in patent US6699900B2, “Hydrophilic and lipophilic silibinin pro-forms” (priority 2001, dated 2004).

Details: Merck Index, Reference 8680

## COc1cc(C2Oc3cc([C@H]4Oc5cc(O)cc(O)c5C(=O)[C@@H]4O)ccc3OC2CO)ccc1O (stereo partly shown) [silibinin]
  solubility in aqueous or lipophilic phases: not readily soluble
